{"source": "patent US20260109700A1", "about": "“NITROGEN-CONTAINING HETEROCYCLIC COMPOUNDS AND PHARMACEUTICALLY ACCEPTABLE SALTS THEREOF, PREPARATION METHOD THEREFOR, AND THE USE THEREOF” (NEUSHEN THERAPEUTICS (SHANGHAI) CO., LTD, priority 2022, published 2026)", "key": {"[1]": {"test_system": "patients with schizophrenia", "conditions": "phase Ib; cited from earlier work"}, "human M4 receptor": {"biological_target": "T1, human M4 receptor (Homo sapiens, UniProt P08173)", "T1 construct": "expressed in transfected cells", "T1 sequence (P08173 1-479)": "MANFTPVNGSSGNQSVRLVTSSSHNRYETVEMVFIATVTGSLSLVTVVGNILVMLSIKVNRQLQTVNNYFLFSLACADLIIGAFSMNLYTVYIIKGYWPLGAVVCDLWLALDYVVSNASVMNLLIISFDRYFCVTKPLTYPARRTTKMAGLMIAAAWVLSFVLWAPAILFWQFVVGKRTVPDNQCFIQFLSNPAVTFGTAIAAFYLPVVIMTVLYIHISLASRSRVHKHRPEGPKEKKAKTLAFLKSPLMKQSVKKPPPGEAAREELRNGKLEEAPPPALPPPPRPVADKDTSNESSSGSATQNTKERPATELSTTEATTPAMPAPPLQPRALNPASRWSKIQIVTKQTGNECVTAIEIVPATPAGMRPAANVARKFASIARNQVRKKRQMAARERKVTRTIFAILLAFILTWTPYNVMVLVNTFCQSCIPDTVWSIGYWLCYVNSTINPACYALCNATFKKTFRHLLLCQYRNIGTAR", "assay": "PAM activity on M4 receptor, FLIPR CALCIUM 6 assay in M4-Gα15-CHO cells with acetylcholine", "type": "cell-based", "conditions": "PAM mode with acetylcholine agonist, FLIPR calcium signal", "procedure": "The activity of compounds on M4 receptor was determined by FLIPR CALCIUM 6 ASSAY KIT using a stable transfected cell line expressing human M4 receptor (M4-Gα15-CHO).\n1. This study uses a CHO cell line stably expressing M4-Gα15 receptor, which expresses human CHRM4 and GNA15 genes, respectively.\n2. Cell treatment: M4-Gα15-CHO cells were cultured in F-12 medium containing 10% fetal bovine serum, 0.4 mg/mL hygromycin B, and 0.8 mg/mL geneticin G418, with a culture temperature of 37° C. and a CO2 concentration of 5%. The old media was removed and the cells were washed once with phosphate buffered saline. 1 mL of trypsin solution was then added, and the mixture was incubated at 37° C. for approximately 2 minutes. After the cells were detached from the dish, approximately 5 mL of complete media pre-warmed at 37° C. was added. The cell suspension was gently pipetted to separate the aggregated cells. The cell suspension was transferred to a sterile centrifuge tube and centrifuged at 1000 rpm for 5 minutes.\n1. Cell plating: M4-Gα15-CHO cells were digested and collected, then resuspended and counted, and seeded into a 384-well cell plate at a density of 1.2×10^4 cells/25 μL/well. The cell plate was then incubated in a 5% CO2 incubator at 37° C. for approximately 20 hours.\n2. Preparation of loading buffer according to the instructions of FLIPR CALCIUM 6 ASSAY KIT after 24 hours: Component A was freeze-thawed to room temperature, and diluted with assay buffer and probenecid solution to obtain a loading buffer, which was kept at room temperature for later use.\n3. The medium was removed from the cell plate, and 35 µL of loading buffer was quickly added to each well. After centrifugation, the cell plate was incubated at 37° C. in the dark for 120 minutes.\n4. A working solution of the compound to be tested was prepared, 5 μL of which was transferred to the corresponding cell wells, and incubated at 37° C. in the dark for 30 minutes.\n5. 30 nM acetylcholine agonist working solution was prepared and transferred to a 384-well loading plate at 20 μL/well.\n6. The cell plate, the loading plate, and the pipette tip were placed at the corresponding positions of the FLIPR instrument. 10 μL of the agonist diluted in step 5 was added to the experimental wells using FLIPR, and data were collected at a wavelength of 515 nm to 575 nm.\n7. The signal value was plotted against compound concentration. Curve fitting and EC50 calculation were performed by nonlinear regression method using GraphPad Prism software.\n1. 0.5 mol/L 2-(4-(2-hydroxyethyl)piperazine)ethanesulfonic acid buffer was mixed with Hanks' balanced salt solution (pH 7.4) at a volume ratio of 1:24 to prepare an assay buffer. 10 mL of assay buffer was added to a vial of CALCIUM 6 ASSAY KIT Component A in the form of lyophilized powder, and aliquoted and stored at −20° C.\n2. Probenecid powder was dissolved in 1 mol/L sodium hydroxide solution to a final concentration of […]. The assay buffer, freeze-thawed Component A, and probenecid solution were mixed at a volume ratio of 44:5:1 to prepare a loading buffer."}, "[2]": {"assay": "Pharmacokinetic properties in vivo in mice (iv and oral)", "conditions": "mouse, plasma, CD-1 mice, oral 2.0 mg/kg; for bioavailability / clearance / Vd / Cmax: iv 1.0 mg/kg; for bioavailability: read-out: Bioavailability F; for clearance: read-out: Clearance CL; for Vd: read-out: Volume of distribution at steady state Vdss; for AUC(0-t): read-out: Area under the curve AUC0-last, po; for half-life: read-out: Half-life T1/2, po (converted); for Cmax: read-out: Peak concentration Cmax", "procedure": "The compounds obtained in the examples of the present disclosure were evaluated for their pharmacokinetic properties in vivo in CD-1 mice.\nThe compounds were tested for their pharmacokinetic characteristics in rodents after intravenous injection and oral administration following standard protocols. In the experiment, the candidate compound was prepared into a clear solution or suspension with a specified vehicle, and administered to three mice via single-dose intravenous injection and oral administration, respectively. The vehicle for both intravenous injection and oral administration was 5% dimethyl sulfoxide+95% (10% polyethylene glycol (15)-hydroxystearate in water). Whole blood samples within 24 hours were collected into a commercial EDTA2K anticoagulant tube, followed by centrifugation to obtain the upper plasma sample, and acetonitrile solution containing internal standard was added to precipitate proteins. After centrifugation, the supernatant was mixed with an equal volume of water, and after another centrifugation, the supernatant was taken for injection. Plasma concentration was quantitatively analyzed using LCMS/MS analysis method, and pharmacokinetic parameters were calculated."}, "mice": {"test_system": "mice", "conditions": "genetic mouse model of schizophrenia; cited from earlier work"}, "patients": {"test_system": "patients", "conditions": "cited from earlier work"}}, "data": [{"smiles": "Cc1cc(C)c2c(n1)CN(C(=O)CC1CN(c3ccnc(C(F)(F)F)c3)C1)C2", "note": "[CVL-231]", "values": [{"measurement": "PANSS total score", "setting": "[1]", "result": "significantly reduce"}]}, {"smiles": "Cc1nnc(N2CCC2)c2c1CN(C(=O)CC1CN(c3ccnc(C(F)(F)F)c3)C1)C2", "note": "[Example 12]", "values": [{"measurement": "EC50", "setting": "human M4 receptor", "result": 350, "unit": "nM"}, {"measurement": "bioavailability", "setting": "[2]", "result": 86.6, "unit": "%"}, {"measurement": "clearance", "setting": "[2]", "result": 17.1, "unit": "mL/min/kg"}, {"measurement": "Vd", "setting": "[2]", "result": 2.3, "unit": "L/kg"}, {"measurement": "AUC(0-t)", "setting": "[2]", "result": 1690, "unit": "ng·h/mL"}, {"measurement": "half-life", "setting": "[2]", "result": 67.8, "unit": "min"}, {"measurement": "Cmax", "setting": "[2]", "result": 614, "unit": "ng/mL"}]}, {"smiles": "Cc1nnc(C)c2c1CN(C(=O)CC1CN(c3ccnc(C(F)(F)F)c3)C1)C2", "note": "[Example 24]", "values": [{"measurement": "EC50", "setting": "human M4 receptor", "result": 387, "unit": "nM"}]}, {"smiles": "Cc1nnc(N2CCC2)c2c1CN(C(=O)CC1CN(c3ccnc(OCC(F)(F)F)c3)C1)C2", "note": "[Example 47]", "values": [{"measurement": "EC50", "setting": "human M4 receptor", "result": 250, "unit": "nM"}]}, {"smiles": "Cc1nsc(N2CC(CC(=O)N3Cc4c(C)nnc(N5CCC5)c4C3)C2)n1", "note": "[Example 50]", "values": [{"measurement": "EC50", "setting": "human M4 receptor", "result": 1780, "unit": "nM"}]}, {"smiles": "Cc1nnc(N2CCC2)c2c1CN(C(=O)CC1CN(c3ccnc(C(F)(F)F)c3)C1C)C2", "note": "(stereo not drawn) [Example 51]", "values": [{"measurement": "EC50", "setting": "human M4 receptor", "result": 1370, "unit": "nM"}]}, {"smiles": "Cc1nnc(C)c2c1CN(C(=O)CC1CN(c3ccnc(OCC(F)(F)F)c3)C1)C2", "note": "[Example 67]", "values": [{"measurement": "EC50", "setting": "human M4 receptor", "result": 390, "unit": "nM"}, {"measurement": "bioavailability", "setting": "[2]", "result": 82.7, "unit": "%"}, {"measurement": "clearance", "setting": "[2]", "result": 3.32, "unit": "mL/min/kg"}, {"measurement": "Vd", "setting": "[2]", "result": 1.53, "unit": "L/kg"}, {"measurement": "AUC(0-t)", "setting": "[2]", "result": 8040, "unit": "ng·h/mL"}, {"measurement": "half-life", "setting": "[2]", "result": 287, "unit": "min"}, {"measurement": "Cmax", "setting": "[2]", "result": 827, "unit": "ng/mL"}]}, {"smiles": "Cc1nnc(C)c2c1CN(C(=O)CC1CN(c3ccnc(SC(F)(F)F)c3)C1)C2", "note": "[Example 68]", "values": [{"measurement": "EC50", "setting": "human M4 receptor", "result": 480, "unit": "nM"}]}, {"smiles": "Cc1nnc(C)c2c1CN(C(=O)CC1CN(c3ccnc(O[C@H](C)C(F)(F)F)c3)C1)C2", "note": "[Example 89]", "values": [{"measurement": "EC50", "setting": "human M4 receptor", "result": 290, "unit": "nM"}, {"measurement": "bioavailability", "setting": "[2]", "result": 80.6, "unit": "%"}, {"measurement": "clearance", "setting": "[2]", "result": 7.65, "unit": "mL/min/kg"}, {"measurement": "Vd", "setting": "[2]", "result": 3.72, "unit": "L/kg"}, {"measurement": "AUC(0-t)", "setting": "[2]", "result": 3470, "unit": "ng·h/mL"}, {"measurement": "half-life", "setting": "[2]", "result": 279, "unit": "min"}, {"measurement": "Cmax", "setting": "[2]", "result": 345, "unit": "ng/mL"}]}, {"smiles": "Cc1nnc(C2CC2)c2c1CN(C(=O)CC1CN(c3ccnc(OCC(F)(F)F)c3)C1)C2", "note": "[Example 98]", "values": [{"measurement": "EC50", "setting": "human M4 receptor", "result": 1130, "unit": "nM"}]}, {"smiles": "CCc1nnc(C)c2c1CN(C(=O)CC1CN(c3ccnc(OCC(F)(F)F)c3)C1)C2", "note": "[Example 110]", "values": [{"measurement": "EC50", "setting": "human M4 receptor", "result": 900, "unit": "nM"}]}, {"smiles": "Cc1nnc(C)c2c1CN(C(=O)CC1CN(c3ccnc(O[C@@H](C)C(F)(F)F)c3)C1)C2", "note": "[Example 116]", "values": [{"measurement": "EC50", "setting": "human M4 receptor", "result": 580, "unit": "nM"}]}, {"smiles": "Cc1c(Cc2ccc(-n3cccn3)cc2)cc2c(c1F)CN([C@H]1COCC[C@@H]1O)C2=O", "note": "[TAK-071]", "values": [{"measurement": "deficits in memory cognition, social competence, and sensory-motor gating", "setting": "mice", "result": "significantly ameliorates"}]}, {"smiles": "CCCCCCOc1nsnc1C1=CCCN(C)C1", "note": "[Xanomeline]", "values": [{"measurement": "toxic and side effects", "setting": "patients; peripheral nervous system and digestive tract", "result": "serious toxic and side effects"}, {"measurement": "cognitive function of patients", "setting": "patients; phase II clinical trial, Alzheimer's disease", "result": "improvement in the cognitive function"}]}]}
